Test results as given in patent US6395896B2, “Pyridazine derivatives, manufacturing method and related composition” (Shiseido Co., Ltd., priority 1999, dated 2002).

Experiment: Colorant stabilization effect (photostabilizer, sunlight exposure)
Parameters: key to Sunlight exposure (80 MJ) Appearance: A: No change; B: No almost change; C: Yes change; key to Sunlight exposure (80 MJ) ΔE: ΔE color difference (Lab) vs. color before sunlight exposure
Protocol: First of all, the photostabilization effect and appearance change of a composition in each pigment were studied by the following evaluation formulation.
Each test sample was prepared. Observation of appearance change (visual evaluation) and measurement of color difference (ΔE) were carried out in samples exposed to sunlight exposure (around 80 MJ).
Color difference was measured by Lab coordinate system with spectrophotometer. Color difference was calculated on the basis of the color before sunlight exposure. Namely, from measured value (L1,a1,b1) before sunlight exposure, color difference (ΔE) was calculated by following formula.

[1] = Blue No. 1 0.00001 wt %, photostabilizer 0.05 wt %
[2] = Blue No. 1 0.00001 wt %, photostabilizer 0.1 wt %
[3] = Blue No. 1 0.00001 wt %, photostabilizer 0.3 wt %
[4] = Blue No. 1 0.0001 wt %, photostabilizer 0.03 wt %
[5] = Blue No. 1 0.0001 wt %, photostabilizer 0.05 wt %
[6] = Blue No. 1 0.0001 wt %, photostabilizer 0.1 wt %
[7] = Green No. 3 0.00001 wt %, photostabilizer 0.03 wt %
[8] = Green No. 3 0.00001 wt %, photostabilizer 0.1 wt %
[9] = Green No. 3 0.00001 wt %, photostabilizer 0.3 wt %
[10] = Green No. 3 0.0001 wt %, photostabilizer 0.02 wt %
[11] = Green No. 3 0.0001 wt %, photostabilizer 0.05 wt %
[12] = Green No. 3 0.0001 wt %, photostabilizer 0.1 wt %
[13] = Red No. 106 0.00001 wt % + Yellow No. 5 0.0001 wt %, photostabilizer 0.03 wt %
[14] = Red No. 106 0.00001 wt % + Yellow No. 5 0.0001 wt %, photostabilizer 0.05 wt %
[15] = Red No. 106 0.00001 wt % + Yellow No. 5 0.0001 wt %, photostabilizer 0.3 wt %
[16] = Red No. 106 0.00001 wt % + Yellow No. 203 0.0001 wt %, photostabilizer 0.05 wt %
[17] = Red No. 106 0.00001 wt % + Yellow No. 203 0.0001 wt %, photostabilizer 0.1 wt %
[18] = Red No. 106 0.00001 wt % + Yellow No. 203 0.0001 wt %, photostabilizer 0.3 wt %
[19] = Red No. 106 0.00001 wt %, photostabilizer 0.05 wt %
[20] = Red No. 106 0.00001 wt %, photostabilizer 0.1 wt %
[21] = Red No. 106 0.00001 wt %, photostabilizer 0.3 wt %
[22] = Red No. 106 0.0001 wt %, photostabilizer 0.03 wt %
[23] = Red No. 106 0.0001 wt %, photostabilizer 0.05 wt %
[24] = Red No. 106 0.0001 wt %, photostabilizer 0.1 wt %
[25] = Red No. 213 0.00001 wt % + Blue No. 1 0.00001 wt %, photostabilizer 0.03 wt %
[26] = Red No. 213 0.00001 wt % + Blue No. 1 0.00001 wt %, photostabilizer 0.05 wt %
[27] = Red No. 213 0.00001 wt % + Blue No. 1 0.00001 wt %, photostabilizer 0.1 wt %
[28] = Red No. 213 0.00001 wt %, photostabilizer 0.03 wt %
[29] = Red No. 213 0.00001 wt %, photostabilizer 0.1 wt %
[30] = Red No. 213 0.00001 wt %, photostabilizer 0.3 wt %
[31] = Red No. 213 0.0001 wt %, photostabilizer 0.03 wt %
[32] = Red No. 213 0.0001 wt %, photostabilizer 0.05 wt %
[33] = Red No. 213 0.0001 wt %, photostabilizer 0.1 wt %
[34] = Red No. 227 0.00001 wt %, photostabilizer 0.05 wt %
[35] = Red No. 227 0.00001 wt %, photostabilizer 0.1 wt %
[36] = Red No. 227 0.00001 wt %, photostabilizer 0.3 wt %

In the case of `Oc1nncc(N2CCOCC2)c1N1CCOCC1` [4,5-Dimorpholino-3-hydroxypyridazine], the “Sunlight exposure (80 MJ) Appearance” value [1] was “A”, the “Sunlight exposure (80 MJ) ΔE” value [1] was 1.00 and the “Sunlight exposure (80 MJ) Appearance” value [2] was “A”. For the same compound, the “Sunlight exposure (80 MJ) ΔE” value [2] was 0.62, the “Sunlight exposure (80 MJ) Appearance” value [3] was “A” and the “Sunlight exposure (80 MJ) ΔE” value [3] was 0.25. For the same compound, the “Sunlight exposure (80 MJ) Appearance” value [4] was “A”, the “Sunlight exposure (80 MJ) ΔE” value [4] was 1.25 and the “Sunlight exposure (80 MJ) Appearance” value [5] was “A”. The “Sunlight exposure (80 MJ) ΔE” value [5] was 1.11, the “Sunlight exposure (80 MJ) Appearance” value [6] was “A” and the “Sunlight exposure (80 MJ) ΔE” value [6] was 0.70. The “Sunlight exposure (80 MJ) Appearance” value [7] was “A”, the “Sunlight exposure (80 MJ) ΔE” value [7] was 0.56 and the “Sunlight exposure (80 MJ) Appearance” value [8] was “A”. For the same compound, the “Sunlight exposure (80 MJ) ΔE” value [8] was 0.08, the “Sunlight exposure (80 MJ) Appearance” value [9] was “A” and the “Sunlight exposure (80 MJ) ΔE” value [9] was 0.02. The “Sunlight exposure (80 MJ) Appearance” value [10] was “A”, the “Sunlight exposure (80 MJ) ΔE” value [10] was 0.75 and the “Sunlight exposure (80 MJ) Appearance” value [11] was “A”. The “Sunlight exposure (80 MJ) ΔE” value [11] was 0.31, the “Sunlight exposure (80 MJ) Appearance” value [12] was “A” and the “Sunlight exposure (80 MJ) ΔE” value [12] was 0.06. For the same compound, the “Sunlight exposure (80 MJ) Appearance” value [13] was “A”, the “Sunlight exposure (80 MJ) ΔE” value [13] was 0.97 and the “Sunlight exposure (80 MJ) Appearance” value [14] was “A”. The “Sunlight exposure (80 MJ) ΔE” value [14] was 0.55, the “Sunlight exposure (80 MJ) Appearance” value [15] was “A” and the “Sunlight exposure (80 MJ) ΔE” value [15] was 0.12. For the same compound, the “Sunlight exposure (80 MJ) Appearance” value [16] was “A”, the “Sunlight exposure (80 MJ) ΔE” value [16] was 0.77 and the “Sunlight exposure (80 MJ) Appearance” value [17] was “A”. The “Sunlight exposure (80 MJ) ΔE” value [17] was 0.25, the “Sunlight exposure (80 MJ) Appearance” value [18] was “A” and the “Sunlight exposure (80 MJ) ΔE” value [18] was 0.11. For the same compound, the “Sunlight exposure (80 MJ) Appearance” value [19] was “A”, the “Sunlight exposure (80 MJ) ΔE” value [19] was 1.01 and the “Sunlight exposure (80 MJ) Appearance” value [20] was “A”. For the same compound, the “Sunlight exposure (80 MJ) ΔE” value [20] was 0.55, the “Sunlight exposure (80 MJ) Appearance” value [21] was “A” and the “Sunlight exposure (80 MJ) ΔE” value [21] was 0.12. The “Sunlight exposure (80 MJ) Appearance” value [22] was “A”, the “Sunlight exposure (80 MJ) ΔE” value [22] was 0.95 and the “Sunlight exposure (80 MJ) Appearance” value [23] was “A”. The “Sunlight exposure (80 MJ) ΔE” value [23] was 0.82, the “Sunlight exposure (80 MJ) Appearance” value [24] was “A” and the “Sunlight exposure (80 MJ) ΔE” value [24] was 0.43. The “Sunlight exposure (80 MJ) Appearance” value [25] was “A”, the “Sunlight exposure (80 MJ) ΔE” value [25] was 1.21 and the “Sunlight exposure (80 MJ) Appearance” value [26] was “A”. For the same compound, the “Sunlight exposure (80 MJ) ΔE” value [26] was 0.97, the “Sunlight exposure (80 MJ) Appearance” value [27] was “A” and the “Sunlight exposure (80 MJ) ΔE” value [27] was 0.73. For the same compound, the “Sunlight exposure (80 MJ) Appearance” value [28] was “B”, the “Sunlight exposure (80 MJ) ΔE” value [28] was 1.24 and the “Sunlight exposure (80 MJ) Appearance” value [29] was “A”. For the same compound, the “Sunlight exposure (80 MJ) ΔE” value [29] was 0.45, the “Sunlight exposure (80 MJ) Appearance” value [30] was “A” and the “Sunlight exposure (80 MJ) ΔE” value [30] was 0.12. For the same compound, the “Sunlight exposure (80 MJ) Appearance” value [31] was “B”, the “Sunlight exposure (80 MJ) ΔE” value [31] was 1.11 and the “Sunlight exposure (80 MJ) Appearance” value [32] was “A”. For the same compound, the “Sunlight exposure (80 MJ) ΔE” value [32] was 0.78, the “Sunlight exposure (80 MJ) Appearance” value [33] was “A” and the “Sunlight exposure (80 MJ) ΔE” value [33] was 0.32. For the same compound, the “Sunlight exposure (80 MJ) Appearance” value [34] was “A”, the “Sunlight exposure (80 MJ) ΔE” value [34] was 0.69 and the “Sunlight exposure (80 MJ) Appearance” value [35] was “A”. For the same compound, the “Sunlight exposure (80 MJ) ΔE” value [35] was 0.32, the “Sunlight exposure (80 MJ) Appearance” value [36] was “A” and the “Sunlight exposure (80 MJ) ΔE” value [36] was 0.11. For the same compound, the “Sunlight exposure (80 MJ) Appearance” value (Red No. 227 0.0001 wt % + Yellow No. 5 0.0001 wt %, photostabilizer 0.03 wt %) was “A”.
